# Measured values: PubChem BioAssay (NCI)
#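 Results reflect a 48-hour exposure of cells in 96-well plates to compound at five concentrations. Abbreviation: GI50, concentration required for 50% inhibition of growth. Definition used: TGI = concentration required for complete inhibition of growth.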
# Tests used:
# Experiment in all cases: NCI tumour cell line growth inhibition, 48 h
# [1] = system: CCRF-CEM leukemia
# [2] = system: UACC-62 melanoma
# [3] = system: PC-3 prostate
# [4] = system: SK-MEL-5 melanoma
# [5] = system: IGROV1 ovarian
# [6] = system: NCI-H522 lung
# [7] = system: SF-268 CNS
# [8] = system: A549 NSCLC
# [9] = system: U251 CNS
# [10] = system: HCC-2998 colon
# [11] = system: RPMI-8226 leukemia
# [12] = system: OVCAR-3 ovarian
# [13] = system: MDA-MB-435
# [14] = system: COLO 205 colon
# [15] = system: K-562 leukemia
# [16] = system: NCI-H460 lung
# [17] = system: UO-31 renal
# [18] = system: NCI-H226 lung
# [19] = system: UACC-257 melanoma
# [20] = system: RXF 393 renal
# [21] = system: HOP-92 NSCLC
# [22] = system: SF-295 CNS
# [23] = system: DU-145 prostate
# [24] = system: NCI/ADR-RES ovarian
# [25] = system: HCT-15 colon
# [26] = system: ACHN renal
# [27] = system: MALME-3M melanoma
# [28] = system: HCT-116 colon
# [29] = system: MDA-MB-231 breast
# [30] = system: SR leukemia
# [31] = system: EKVX NSCLC
# [32] = system: MCF7 breast
# [33] = system: 786-0 renal
# [34] = system: M14 melanoma
# [35] = system: CAKI-1 renal
# [36] = system: SK-MEL-2 melanoma
# [37] = system: T-47D breast
# [38] = system: HL-60(TB) leukemia
# [39] = system: OVCAR-4 ovarian
# [40] = system: SNB-19 CNS
# [41] = system: OVCAR-5 ovarian
# [42] = system: SW-620 colon
# [43] = system: KM12 colon
# [44] = system: HOP-62 NSCLC
# [45] = system: SK-OV-3 ovarian
# [46] = system: LOX IMVI melanoma
# [47] = system: SN12C renal
# [48] = system: OVCAR-8 ovarian
# [49] = system: TK-10 renal
# [50] = system: A498 renal
# [51] = system: HT29 colon
# [52] = system: SF-539 CNS
# [53] = system: HS 578T breast
# [54] = system: SK-MEL-28 melanoma
# [55] = system: SNB-75 CNS
# [56] = system: MOLT-4 leukemia
# [57] = system: NCI-H23 lung
# [58] = system: BT-549 breast
# [59] = system: MDA-N
structure (smiles),measurement,setting,value
Cc1ccc(NC(=O)c2cccc(N(C)C)c2)cc1NC(=O)c1ccc(O)cc1,GI50,[1],16.6 µM
same,TGI,[1],> 100 µM
same,GI50,[2],34 µM
same,TGI,[2],99.4 µM
same,GI50,[3],> 61.7 µM
same,TGI,[3],> 100 µM
same,GI50,[4],28.5 µM
same,TGI,[4],> 65.8 µM
same,GI50,[5],> 85.8 µM
same,TGI,[5],> 100 µM
same,GI50,[6],37.1 µM
same,TGI,[6],> 88.2 µM
same,GI50,[7],44.6 µM
same,TGI,[7],> 100 µM
same,GI50,[8],61.4 µM
same,TGI,[8],> 100 µM
same,GI50,[9],> 68.8 µM
same,TGI,[9],> 100 µM
same,GI50,[10],74.8 µM
same,TGI,[10],> 100 µM
same,GI50,[11],> 63.1 µM
same,TGI,[11],> 100 µM
same,GI50,[12],67.3 µM
same,TGI,[12],> 100 µM
same,GI50,[13],52.3 µM
same,TGI,[13],> 100 µM
same,GI50,[14],> 64.7 µM
same,TGI,[14],> 100 µM
same,GI50,[15],42.7 µM
same,TGI,[15],> 100 µM
same,GI50,[16],45.2 µM
same,TGI,[16],> 100 µM
same,GI50,[17],> 73.4 µM
same,TGI,[17],> 100 µM
same,GI50,[18],> 71.4 µM
same,TGI,[18],> 100 µM
same,GI50,[19],> 68.2 µM
same,TGI,[19],> 100 µM
same,GI50,[20],38 µM
same,TGI,[20],> 66.1 µM
same,GI50,[21],> 52.7 µM
same,TGI,[21],> 100 µM
same,GI50,[22],37.6 µM
same,TGI,[22],> 100 µM
same,GI50,[23],62.6 µM
same,TGI,[23],> 100 µM
same,GI50,[24],> 72 µM
same,TGI,[24],> 100 µM
same,GI50,[25],53.3 µM
same,TGI,[25],> 100 µM
same,GI50,[26],> 63.6 µM
same,TGI,[26],> 100 µM
same,GI50,[27],> 75.9 µM
same,TGI,[27],> 100 µM
same,GI50,[28],> 59.4 µM
same,TGI,[28],> 100 µM
same,GI50,[29],33 µM
same,TGI,[29],> 93.6 µM
same,GI50,[30],31.5 µM
same,TGI,[30],> 100 µM
same,GI50,[31],> 79.7 µM
same,TGI,[31],> 100 µM
same,GI50,[32],52 µM
same,TGI,[32],> 100 µM
same,GI50,[33],> 71.5 µM
same,TGI,[33],> 100 µM
same,GI50,[34],> 64.6 µM
same,TGI,[34],> 100 µM
same,GI50,[35],52.8 µM
same,TGI,[35],> 100 µM
same,GI50,[36],14.1 µM
same,TGI,[36],39.2 µM
same,GI50,[37],> 48.7 µM
same,TGI,[37],> 79.2 µM
same,GI50,[38],46.3 µM
same,TGI,[38],> 100 µM
same,GI50,[39],38.6 µM
same,TGI,[39],> 100 µM
same,GI50,[40],51.1 µM
same,TGI,[40],> 100 µM
same,GI50,[41],> 82.4 µM
same,TGI,[41],> 100 µM
same,GI50,[42],> 75.5 µM
same,TGI,[42],> 100 µM
same,GI50,[43],54.9 µM
same,TGI,[43],> 100 µM
same,GI50,[44],54.2 µM
same,TGI,[44],> 100 µM
same,GI50,[45],65.7 µM
same,TGI,[45],> 100 µM
same,GI50,[46],> 62 µM
same,TGI,[46],> 100 µM
same,GI50,[47],55 µM
same,TGI,[47],> 100 µM
same,GI50,[48],53.2 µM
same,TGI,[48],> 100 µM
same,GI50,[49],> 70 µM
same,TGI,[49],> 100 µM
same,GI50,[50],> 83.6 µM
same,TGI,[50],> 100 µM
same,GI50,[51],> 57.3 µM
same,TGI,[51],> 100 µM
same,GI50,[52],41 µM
same,TGI,[52],> 100 µM
same,GI50,[53],63.6 µM
same,TGI,[53],> 100 µM
same,GI50,[54],> 50.1 µM
same,TGI,[54],> 100 µM
same,GI50,[55],26.3 µM
same,TGI,[55],> 81.8 µM
same,GI50,[56],> 72.4 µM
same,TGI,[56],> 100 µM
same,GI50,[57],> 61.9 µM
same,TGI,[57],> 100 µM
same,GI50,[58],> 64 µM
same,TGI,[58],> 100 µM
CCOC(=O)C(CC#Cc1ccc(C#CCC(NC(C)=O)C(=O)OCC)cc1)NC(C)=O (configuration not stated),TGI,[1],> 100 µM
same,TGI,[2],> 100 µM
same,TGI,[3],> 100 µM
same,TGI,[4],> 100 µM
same,TGI,[5],> 100 µM
same,TGI,[6],> 100 µM
same,TGI,[7],> 100 µM
same,TGI,[8],> 100 µM
same,TGI,[59],> 100 µM
same,TGI,[10],> 100 µM
same,TGI,[11],> 100 µM
same,TGI,[12],> 100 µM
same,TGI,[13],> 100 µM
same,TGI,[14],> 100 µM
same,TGI,[15],> 100 µM
same,TGI,[16],> 100 µM
same,TGI,[17],> 100 µM
same,TGI,[18],> 100 µM
same,TGI,[19],> 100 µM
same,TGI,[20],> 100 µM
same,TGI,[22],> 100 µM
same,TGI,[23],> 100 µM
same,TGI,[24],> 100 µM
same,TGI,[25],> 100 µM
same,TGI,[26],> 100 µM
same,TGI,[27],> 100 µM
same,TGI,[28],> 100 µM
same,TGI,[29],> 100 µM
same,TGI,[30],> 100 µM
same,TGI,[31],> 100 µM
same,TGI,[32],> 100 µM
same,TGI,[33],> 100 µM
same,TGI,[34],> 100 µM
same,TGI,[35],> 100 µM
same,TGI,[36],> 100 µM
same,TGI,[37],> 100 µM
same,TGI,[38],> 100 µM
same,TGI,[39],> 100 µM
same,TGI,[40],> 100 µM
same,TGI,[41],> 100 µM
same,TGI,[42],> 100 µM
same,TGI,[43],> 100 µM
same,TGI,[44],> 100 µM
same,TGI,[45],> 100 µM
same,TGI,[46],> 100 µM
same,TGI,[47],> 100 µM
same,TGI,[48],> 100 µM
same,TGI,[49],> 100 µM
same,TGI,[50],> 100 µM
same,TGI,[51],> 100 µM
same,TGI,[52],> 100 µM
same,TGI,[53],> 100 µM
same,TGI,[54],> 100 µM
same,TGI,[55],> 100 µM
same,TGI,[56],> 100 µM
same,TGI,[57],> 100 µM
